Reference: patent US20030129629A1, “Methods and compositions for the identification, assessment, prevention, and therapy of human cancers” (Millennium Pharmaceuticals, Inc., priority 2000, published 2003)
Where two headings read alike, the source gives them in different places.

Legend:
[1] = system: 60 cancer cell lines (NCI 60 cancer cell line series); conditions: cited from earlier work
[2] = system: 60 cancer cell lines (NCI 60 cancer cell line series); assay: NCI-DTP in vitro cancer screen, sulforhodamine B (SRB) growth inhibition, 48 hour exposure; format: cell-based, human
Procedure, shortened: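 Potency is given as mean −log{GI50} from dose–response curves, manually binned into Low, Medium or High sensitivity. Sixty NCI-DTP tumour lines were treated 48 h with a duplicate, five-dose, ten-fold dilution series, and growth read by SRB staining of cell mass.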

Structure (SMILES): COc1cc([C@@H]2c3cc4c(cc3[C@@H](O[C@@H]3O[C@@H]5CO[C@@H](C)O[C@H]5[C@H](O)[C@H]3O)[C@H]3COC(=O)[C@H]23)OCO4)cc(OC)c1O [Etoposide]
- −Log (GI50) ([1]; Melanoma SK-MEL-2 CL10005): 4.5
- −Log (GI50) ([1]; Melanoma SK-MEL-5 CL10007): 5.0
- −Log (GI50) ([1]; Melanoma SK-MEL-28 CL10008): 4.4
- −Log (GI50) ([1]; Melanoma UACC-62 CL10020): 4.9
- −Log (GI50) ([1]; Melanoma UACC-257 CL10021): 4.2
- −Log (GI50) ([1]; NSCLC A549/ATCC CL1004): 5.2
- −Log (GI50) ([1]; NSCLC EKVX CL1008): 4.4
- −Log (GI50) ([1]; NSCLC HOP-62 CL1026): 5.5
- −Log (GI50) ([1]; NSCLC HOP-92 CL1029): 4.8
- −Log (GI50) ([1]; NSCLC NCI-H226 CL1013): 5.2
- classification of cell line as Low(1), Medium(2), High(3) sensitivity to compound ([2]; Breast BT-549 CL5013): 2
- classification of cell line as Low(1), Medium(2), High(3) sensitivity to compound ([2]; Breast HS-578T CL5006): 3
- classification of cell line as Low(1), Medium(2), High(3) sensitivity to compound ([2]; Breast MCF7(I) CL5001): 2
- classification of cell line as Low(1), Medium(2), High(3) sensitivity to compound ([2]; Breast MCF7/ADRr CL5002): 1
- classification of cell line as Low(1), Medium(2), High(3) sensitivity to compound ([2]; Breast MDA-MB-231 CL5005): 2
- classification of cell line as Low(1), Medium(2), High(3) sensitivity to compound ([2]; Breast MDA-MB-435 CL5011): 2
- classification of cell line as Low(1), Medium(2), High(3) sensitivity to compound ([2]; Breast MDA-N CL5012): 3
- classification of cell line as Low(1), Medium(2), High(3) sensitivity to compound ([2]; Breast T-47D CL5014): 3
- classification of cell line as Low(1), Medium(2), High(3) sensitivity to compound ([2]; CNS SF-268 CL12014): 2
- classification of cell line as Low(1), Medium(2), High(3) sensitivity to compound ([2]; CNS SF-295 CL12015): 2
- classification of cell line as Low(1), Medium(2), High(3) sensitivity to compound ([2]; CNS SF-539 CL12016): 2
- classification of cell line as Low(1), Medium(2), High(3) sensitivity to compound ([2]; CNS SNB-19 CL12002): 2
- classification of cell line as Low(1), Medium(2), High(3) sensitivity to compound ([2]; CNS SNB-75(I) CL12005): 2
- classification of cell line as Low(1), Medium(2), High(3) sensitivity to compound ([2]; CNS U251(I) CL12009): 2
- classification of cell line as Low(1), Medium(2), High(3) sensitivity to compound ([2]; Colon COLO-250 CL4010): 1
- classification of cell line as Low(1), Medium(2), High(3) sensitivity to compound ([2]; Colon HCC-2998 CL4002): 2
- classification of cell line as Low(1), Medium(2), High(3) sensitivity to compound ([2]; Colon HCT-15 CL4015): 2
- classification of cell line as Low(1), Medium(2), High(3) sensitivity to compound ([2]; Colon HCT-116 CL4003): 2
- classification of cell line as Low(1), Medium(2), High(3) sensitivity to compound ([2]; Colon HT29(I) CL4001): 1
- classification of cell line as Low(1), Medium(2), High(3) sensitivity to compound ([2]; Colon KM12 CL4017): 2
- classification of cell line as Low(1), Medium(2), High(3) sensitivity to compound ([2]; Colon SW-620 CL4009): 2
- classification of cell line as Low(1), Medium(2), High(3) sensitivity to compound ([2]; Leukemia CCRF-CEM(I) CL7003): 2
- classification of cell line as Low(1), Medium(2), High(3) sensitivity to compound ([2]; Leukemia HL-60(I) CL7008): 2
- classification of cell line as Low(1), Medium(2), High(3) sensitivity to compound ([2]; Leukemia K562(I) CL7005): 2
- classification of cell line as Low(1), Medium(2), High(3) sensitivity to compound ([2]; Leukemia MOLT-4 CL7006): 3
- classification of cell line as Low(1), Medium(2), High(3) sensitivity to compound ([2]; Leukemia RPMI-8226(I) CL7010): 2
- classification of cell line as Low(1), Medium(2), High(3) sensitivity to compound ([2]; Leukemia SR CL7019): 3
- classification of cell line as Low(1), Medium(2), High(3) sensitivity to compound ([2]; Melanoma LOX IMVI CL10001): 2
- classification of cell line as Low(1), Medium(2), High(3) sensitivity to compound ([2]; Melanoma M14 CL10014): 3
- classification of cell line as Low(1), Medium(2), High(3) sensitivity to compound ([2]; Melanoma MALME-3M CL10002): 2
- classification of cell line as Low(1), Medium(2), High(3) sensitivity to compound ([2]; Melanoma SK-MEL-2 CL10005): 2
- classification of cell line as Low(1), Medium(2), High(3) sensitivity to compound ([2]; Melanoma SK-MEL-28 CL10008): 1
- sensitivity classification Low(1)/Medium(2)/High(3) ([2]; NSCLC NCI-H23(I) CL1001): 2
- sensitivity classification Low(1)/Medium(2)/High(3) ([2]; NSCLC NCI-H332M CL1017): 1
- sensitivity classification Low(1)/Medium(2)/High(3) ([2]; NSCLC NCI-H460 CL1021): 3
- sensitivity classification Low(1)/Medium(2)/High(3) ([2]; NSCLC NCI-H522 CL1003): 2
- sensitivity classification Low(1)/Medium(2)/High(3) ([2]; Ovarian IGROV1 CL6010): 1
- sensitivity classification Low(1)/Medium(2)/High(3) ([2]; Ovarian OVCAR-3 CL6001): 1
- sensitivity classification Low(1)/Medium(2)/High(3) ([2]; Ovarian OVCAR-4 CL6002): 1
- sensitivity classification Low(1)/Medium(2)/High(3) ([2]; Ovarian OVCAR-5 CL6003): 1
- sensitivity classification Low(1)/Medium(2)/High(3) ([2]; Ovarian OVCAR-8 CL6005): 2
- sensitivity classification Low(1)/Medium(2)/High(3) ([2]; Ovarian SK-OV-3 CL6011): 2
- sensitivity classification Low(1)/Medium(2)/High(3) ([2]; Prostate DU-145 CL11003): 3
- sensitivity classification Low(1)/Medium(2)/High(3) ([2]; Prostate PC-3(I) CL11001): 3
- sensitivity classification Low(1)/Medium(2)/High(3) ([2]; Renal 786-0 CL9018): 2
- sensitivity classification Low(1)/Medium(2)/High(3) ([2]; Renal A498 CL9013): 2
- sensitivity classification Low(1)/Medium(2)/High(3) ([2]; Renal ACHN CL9023): 3
- sensitivity classification Low(1)/Medium(2)/High(3) ([2]; Renal CAKI-1 CL9015): 2
- sensitivity classification Low(1)/Medium(2)/High(3) ([2]; Renal RXF-393 CL9016): 2
- sensitivity classification Low(1)/Medium(2)/High(3) ([2]; Renal SN12C CL9008): 2
- sensitivity classification Low(1)/Medium(2)/High(3) ([2]; Renal TK10 CL9024): 2
- sensitivity classification Low(1)/Medium(2)/High(3) ([2]; Renal UO-31 CL9004): 1
